Data as given in USRE46792E1, “Oxazole compound and pharmaceutical composition” (Otsuka Pharmaceutical Co., Ltd., priority 2005, dated 2018).

Tests used:
[1] = target: human PDE4D3 (PDE4D) (Homo sapiens (Human), UniProt Q08499); assay: Phosphodiesterase (PDE)4 inhibitory activity evaluation test ([3H]cAMP hydrolysis by PDE4D enzyme solution); assay type: biochemical; conditions: recombinant human PDE4D3 expressed in COS-7 cells; [3H]cAMP substrate; 10 min at 30° C.; 2% DMSO
Outline: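 Human PDE4D3 expressed in COS-7 cells; cell supernatant used as enzyme at a dilution giving 10–30% cAMP turnover. Compounds (10-fold serial dilutions, 2% final DMSO) incubated with enzyme and 2 μM [3H]cAMP stock in 20 mM Tris-HCl pH 7.4 with MgCl2 for 10 min at 30° C. Reaction stopped by boiling.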

[2] = tested on: TNF-α production in mouse peripheral blood mononuclear cells; assay: Inhibitory activity measurement on TNF-α production (LPS-stimulated mouse peripheral blood mononuclear cells, ELISA); assay type: cell-based, mouse (male BALB/c); conditions: PBMC, LPS 1 μg/ml, 5 hours at 37° C., ELISA of culture supernatant
Protocol: Inhibitory Activity Measurement on TNF-α Production
TNF-α production inhibitory activity was evaluated according to the following tests.
(1) Isolation of Mononuclear Cells from Mouse Peripheral Blood
Mononuclear cells were isolated from heparinized blood obtained from male BALB/c mice (Charles River Laboratories, Japan) by density gradient centrifugation using Lympholyte-M (Cedarlane Laboratories). Viable cell numbers in the peripheral blood mononuclear cells were counted using trypan blue dye, and prepared in cell culture medium (RPMI 1640 medium containing 10% FCS) to 1.25×10^6 cells/ml.
(2) Induction of TNF-α Production
Test compounds were dissolved in DMSO, and test compound solutions were diluted for use in cell culture media. 20 μl test compound solutions of different concentrations and 160 μl peripheral blood mononuclear cell suspensions were placed in a 96-well plate, and cultured for 30 minutes. 20 μl (final concentration 1 μg/ml) lipopolysaccharide (LPS) derived from E. coli (serotype 055:B5) was added thereto to induce THF-α production. The mixtures were then cultured at 37° C. for 5 hours, and the culture supernatant was removed from each well.
(3) Measurement of TNF-α Concentration
TNF-α concentrations in the culture supernatants were measured by ELISA (OptEIA™ Set Mouse TNF-α, BD Pharmingen). The IC50 values (concentration which produced 50% inhibition of TNF-α production) for the test compounds were determined with the Excel (Microsoft Excel 2000 SR-1) statistical package using regression analysis function.

human PDE4D3 (PDE4D), sequence (Q08499 other isoform, or with tags, fused parts or gaps): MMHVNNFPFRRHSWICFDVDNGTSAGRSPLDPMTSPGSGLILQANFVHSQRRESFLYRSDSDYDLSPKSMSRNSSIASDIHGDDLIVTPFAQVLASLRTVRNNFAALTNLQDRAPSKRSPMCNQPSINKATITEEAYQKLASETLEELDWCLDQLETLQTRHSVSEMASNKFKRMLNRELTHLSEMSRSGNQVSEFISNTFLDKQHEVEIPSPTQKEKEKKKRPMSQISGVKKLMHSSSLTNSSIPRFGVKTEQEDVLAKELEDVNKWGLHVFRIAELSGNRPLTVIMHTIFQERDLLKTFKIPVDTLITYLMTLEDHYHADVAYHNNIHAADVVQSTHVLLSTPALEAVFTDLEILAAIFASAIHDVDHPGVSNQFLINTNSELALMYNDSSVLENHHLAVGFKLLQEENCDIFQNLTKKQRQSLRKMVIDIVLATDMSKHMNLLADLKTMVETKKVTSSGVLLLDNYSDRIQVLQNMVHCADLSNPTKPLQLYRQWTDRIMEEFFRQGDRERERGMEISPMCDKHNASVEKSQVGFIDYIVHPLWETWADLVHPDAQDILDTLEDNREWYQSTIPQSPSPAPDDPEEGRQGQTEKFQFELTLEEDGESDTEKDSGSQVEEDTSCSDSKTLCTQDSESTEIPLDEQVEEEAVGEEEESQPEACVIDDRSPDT

SMILES | IC50 [1] | IC50 [2]
COc1ccc(-c2nc(CNC(=O)c3ncccc3C)co2)cc1OC1CCCC1 [Example 18, N-[2-(3-cyclopentyloxy-4-methoxyphenyl)oxazol-4-ylmethyl]-3-methylpicolinamide] | < 50 nM | < 50 nM
COc1ccc(-c2nc(CNC(=O)c3c(F)cccc3OC)co2)cc1OCC1CC1 [Example 43, N-[2-(3-cyclopropylmethoxy-4-methoxyphenyl)oxazol-4-ylmethyl]-2-fluoro-6-methoxybenzamide] | < 50 nM | < 50 nM
COc1ccc(-c2nc(CCC(=O)c3ncccc3OC)co2)cc1OCC1CC1 [Example 126] | – | < 50 nM
COc1ccc(-c2nc(CCC(=O)c3ncccc3C)co2)cc1OC1C=CCCC1 (stereo not shown) [Example 157, 3-{2-[3-(2-cyclohexenyloxy)-4-methoxyphenyl]oxazol-4-yl}-1-(3-methylpyridin-2-yl)propan-1-one] | < 50 nM | < 50 nM
C=CCOc1ccccc1C(=O)CCc1coc(-c2ccc(OC)c(OCC3CC3)c2)n1 [Example 177, 1-(2-allyloxyphenyl)-3-[2-(3-cyclopropylmethoxy-4-methoxyphenyl)oxazol-4-yl]propan-1-one] | < 50 nM | < 50 nM
CCOc1ccccc1C(=O)NCc1coc(-c2ccc(OC(F)F)c(OC(CC)CC)c2)n1 [Example 355, N-{2-[4-difluoromethoxy-3-(1-ethylpropoxy)phenyl]oxazol-4-ylmethyl}-2-ethoxybenzamide] | < 50 nM | –
CCOc1ccccc1C(=O)NCc1coc(-c2ccc(OC(F)F)c(OCC(F)F)c2)n1 [Example 382, N-{2-[4-difluoromethoxy-3-(2,2-difluoroethoxy)phenyl]-oxazol-4-ylmethyl}-2-ethoxy benzamide] | < 50 nM | –
CCOc1ccccc1C(=O)NCc1coc(-c2ccc(OC(F)F)c(OCC(F)(F)F)c2)n1 [Example 383, N-{2-[4-difluoromethoxy-3-(2,2,2-trifluoroethoxy)phenyl]-oxazol-4-ylmethyl}-2-ethoxy benzamide] | < 50 nM | –
COc1ccc(-c2nc(CNC(=O)c3ncccc3C)co2)cc1OC(C)C [Example 384, N-[2-(4-methoxy-3-isopropoxyphenyl)oxazol-4-ylmethyl]-3-methylpicolinamide] | < 50 nM | –
